Measurements: US20240207446A1, “M6A-COUPLED EFFECTOR PROTEIN EXPRESSION SYSTEM AND METHODS OF MAKING AND USING SAME” (Duke University, priority 2022, published 2024)
Entries after “also recorded” stand apart in the source; their conditions may differ.

Assays:
m^6A sensor sequence = assay: RT-PCR/Sanger sequencing of C-to-U editing of the m^6A sensor sequence in HEK293T cells; assay type: cell-based, human
Method: (§1) Sanger sequencing and RT-qPCR. Cells were dissociated in culture using TrypLE (Gibco) treatment for 2 minutes and collected by centrifugation (6,000 rpm, 10 minutes, 4° C.). RNA was extracted using the RNA easy Plus Mini kit (Qiagen) according to the manufacturer's protocol. Extracted RNA was purified for genomic and plasmid DNA contamination by incubation with 1 μL DNase I at 37° C. for 30 minutes, and purified RNA was precipitated in 2.5 volumes of isopropanol overnight. RNA quantification was performed using the Qubit 4.0 fluorometer following the Qubit RNA broad range assay kit (Invitrogen). 500 ng of RNA was used for reverse transcription with the iScript reverse transcription supermix (Biorad) following the manufacturer's protocol. PCR was then used to […] amplify the region of interest in the m^6A sensor mRNA sequence (see Table 2). PCR products were column purified before Sanger sequencing using QiaQuick spin columns (Qiagen) and 10 μL reactions were submitted for standard amplicon sequencing (Azenta Life Sciences). C-to-U editing percentage was calculated using the EditR web server 59. To measure gene expression using gene-specific oligos, qPCR was performed using iTaq universal SYBR green Supermix (Biorad). 20 μL reactions were set up with 1 μL of cDNA for each sample, in 3 technical replicates. qPCR was performed on a Biorad CFX Duet real-time PCR instrument, and results were analyzed by normalizing threshold cycle of each target gene to 18S rRNA according to established methods^60. At least 2 biological replicates were used for each sample, and results are plotted as mean relative fold expression comparing treatment to the control group as indicated. Error bars represent standard deviation, and statistical significance was calculated using a two-way t-test assuming unequal variance.

m^6A reporter mRNA = assay: RT-qPCR of m^6A reporter mRNA abundance in HEK293T cells; assay type: cell-based, human
Method: as §1

[1] = tested on: METTL3 (m^6A methylation of the GEMS reporter mRNA), HEK293T cells; assay: GEMS EGFP fluorescence microscopy / quantitative microscopy in HEK293T cells; assay type: cell-based, human
Method: Plasmid Transfection. Transfections were performed using Fugene HD (Promega) according to the manufacturer's instructions. For METTL3 inhibition experiments, cells were treated with 10 μM or 30 μM of STM2457 (MedChemExpress) for 16 hours prior to transfection. Cells were treated with 0.1% DMSO (VWR Life Science) as a control. For experiments using METTL3 degron cells, 0.1 mg/mL of auxin or equivalent volume of H2O (control) was added to the cells for 24 hours prior to plasmid transfection.
Microscopy. All images were obtained using a Leica DMi8 inverted fluorescence microscope. Images were processed using the Leica LAS X software. 4-5 fields of view were obtained per sample, and representative images were selected for each experiment.
Quantitative Microscopy. HEK293T cells were plated in 10 cm cell culture-treated dishes at a density of 2.2×10^6 cells per plate and allowed to grow overnight. Cells were then treated with 30 μM of STM2457 or DMSO control for 16 hours. Cells were then transfected with the GEMS-PEST-DsRed plasmid and allowed to grow for an additional 16 hours. Prior to imaging, media was replaced with 1×PBS with 1 μg/mL Hoechst nuclear fluorescent stain (ThermoFisher Scientific) for 30 minutes. Cells were imaged using a Leica DMi8 fluorescence microscope. Images were analyzed by ImageJ image analysis software. First, fluorescence channels were separated and RGB fluorescence channels were converted to grayscale (16-bit). Binary image thresholds were set in relation to DsRed fluorescence signal and background noise was subtracted. Individual cells were selected, and pixel intensities were generated of each individual cell within the field of view. Similar binary image thresholding, cell selection, and intensity datasets were generated for the EGFP image channel. Data were analyzed by dividing EGFP signal intensity for each cell by average DsRed signal intensity. Data were plotted in JMP software (IMP 17.0, SAS Institute Inc.) by normalized EGFP signal intensity for each treatment. Boxplots represent interquartile range of the data and whiskers represent minimum and maximum data points excluding outliers. Statistical significance was calculated using a two-way t-test assuming unequal variance.

[2] = tested on: m^6A sensor sequence and endogenous ACTB A1222; assay: RT-qPCR-based m^6A quantification in HEK293T cells; assay type: cell-based, human; conditions: METTL3 degron cells, auxin (FIG. 3F)
Method: m^6A detection using RT-qPCR. RNA was extracted and treated with DNase I as described above, and a relative quantification of m^6A by RT-qPCR was adapted from^28. 4 reverse transcription reactions were set up using 150 ng of RNA for each: 2 reactions using BstI polymerase (NEB), and 2 reactions using Superscript reverse transcriptase enzyme (Fisher Scientific). For each reverse transcriptase, one reaction included a primer adjacent (+) to the site being tested (reverse compliment reverse oligo immediately downstream of the site), and the other reaction included a primer that is non-adjacent (−) to the site. The BstI reaction consisted of 10 U BstI polymerase, […], 500 nM oligos (adjacent (+) or non-adjacent (−)), in 1× ThermoPol Buffer. Reactions were incubated in a thermal cycler with the following cycling settings: 3 minutes at 25° C., 30 minutes at 50° C., and 3 minutes at 85° C. Superscript III (SSIII) reactions consisted of 200 U Superscript III, […], 25 mM MgCl2+, 10 mM dNTPs, 500 nM oligos (adjacent or non-adjacent), 2 μL 10× FS Buffer, and water up to 20 μL. […] Threshold cycle values were obtained and relative m^6A was calculated using the formula: 2−(CT Bst(−)−Ct SSIII(−)/Ct Bst(+)−Ct SSIII(+)). […] Error bars represent standard deviation, and statistical significance was calculated using a two-way t-test assuming unequal variance.

[3] = tested on: METTL3 (m^6A methylation of the GEMS reporter mRNA), HEK293T cells; assay: Western blot and densitometry (EGFP, EGFP-DHFR) in HEK293T cells expressing GEMS; assay type: cell-based, human
Method: Western blotting. Cells were dissociated in culture plates using TrypLE (Gibco) and collected by centrifugation (6,000 rpm, 10 minutes, 4° C.). Cell pellets were resuspended in 150 μL chilled standard RIPA buffer (1% Triton X-100, 0.1% Sodium Deoxycholate, 0.1% SDS) prepared with the addition of Complete Mini protease inhibitor (Sigma Aldrich) immediately before use. Cells were resuspended and incubated on ice in RIPA buffer for 30 minutes. Cell lysates were cleared by centrifugation (13,000 rpm, 10 minutes, 4° C.) and mixed in a 1:1 ratio with NuPage LDS sample buffer (Invitrogen) with 5% Beta-Mercaptoethanol (Sigma). Samples were separated by gel electrophoresis on NuPage 4-12% Bis-Tris SDS-PAGE gels (Invitrogen), then transferred onto PVDF membranes (Amersham) using semi-dry transfer (Trans-Blot Turbo, Biorad). Membranes were blocked with 4% milk powder in 0.1% PBST and incubated with the appropriate primary antibody overnight at 4° C. Membranes were then washed with 0.1% PBST and incubated for 1 hour at room temperature in secondary antibody. Blots were washed and incubated in chemiluminescent ECL reagent solution (Amersham) then imaged in a ChemiDoc MP imaging system (BioRad) under chemiluminescent and colorimetric light. In western blot images, cyclophilin A is shown as a loading control and all western blots are representative of a minimum of 3 independent biological replicates. The following antibodies were used in this study: GFP tag Polyclonal antibody (Proteintech, 50430-2-AP). Anti-HA rabbit monoclonal antibody (Cell Signaling, 3724). Anti-Cyclophilin A antibody (Cell Signaling, 2175S). Anti-DsRed-Express2 Monoclonal Antibody (Fisher Scientific, CF180014). Anti-METTL3 antibody (abcam, ab195352). Anti-SOCS2 antibody (abcam, ab109245). Anti-p53 (7F5) Rabbit monoclonal antibody (Cell Signaling, 2527S). Recombinant Anti-JAK2 Antibody (abcam, ab108596). Recombinant Anti-STAT5 (phosphorylated Y694) (abcam, ab32364). Anti-STAT5 antibody (Cell Signaling, 25656S). Secondary antibodies used in this study: Goat Anti-Rabbit IgG HRP (Abcam, ab6721), Goat anti-mouse IgG HRP (Fisher Scientific, 62-6520).
For densitometry analysis, western blot images were quantified using ImageJ software 58. EGFP band intensity was normalized to either EGFP-DHFR or (EGFP+EGFP-DHFR) as indicated in each experiment. Similar densitometry analysis was used to measure total protein production (EGFP+EGFP-DHFR), normalized to the Cyclophilin A loading control. At least two replicates were used for each western blot quantification analysis. Bars are plotted as mean intensity ratio and error bars represent standard deviation.

[4] = tested on: m^6A in cellular mRNA, HEK293T cells; assay: Mass spectrometry of m^6A in purified mRNA; assay type: cell-based, human
Method: Mass spectrometry analysis. Total RNA was extracted as described above, and mRNA was purified using two rounds of oligo(dT) purification with Dynabeads oligo-(dT) mRNA purification kit (Invitrogen), followed by 2 rounds of rRNA depletion using NEBNext rRNA Depletion Kit (V2.0, NEB), and an additional two rounds of oligo(dT) purification with Dynabeads oligo-(dT) mRNA purification kit (Invitrogen). All mRNA purification steps were performed following the manufacturer's instructions. Purified mRNA quality was checked using a Bioanalyzer high sensitivity RNA analysis 6000 pico kit (Agilent). For mass spectrometry analysis, 100-200 ng of purified mRNA was incubated with 2 U of Nuclease P1 (Sigma) with 2.5 mM ZnCl and 25 mM NaCl at 37° C. for 2 hours. mRNA samples were treated with 5 U of antarctic phosphatase (NEB) for 2 h at 37° C. Samples were then processed using the Xevo TQ-S mass spectrometry system. All nucleosides were quantified by retention time and ion mass transitions of 268.2 to 133.2 (A) and 282.2 to 150.1 (m^6A). Data were plotted as a percentage of m^6A relative to A. At least 2 biological replicates were performed for each sample.

Huh-7 cells = assay: RT-qPCR gene expression in Huh-7 cells; assay type: cell-based, human; conditions: increasing amounts of STM2457 (FIG. 9C)
Method: as §1, with “PCR products were column purified before Sanger sequencing using QiaQuick spin columns (Qiagen) and 10 μL reactions were submitted for standard amplicon sequencing (Azenta Life Sciences).” left out, “To measure gene expression using gene-specific oligos, qPCR was performed using iTaq universal SYBR green Supermix (Biorad).” left out, “At least 2 biological replicates were used for each sample, and results are plotted as mean relative fold expression comparing treatment to the control group as indicated.” left out

MOLM-13 cells = conditions: AML cell line with high levels of METTL3; cited from earlier work

O=C(O)Cc1c[nH]c2ccccc12 [auxin]
C-to-U editing of the m^6A sensor sequence (m^6A sensor sequence; METTL3 degron cells, auxin (FIG. 3E)): Editing is reduced
m^6A reporter mRNA expression, RT-qPCR (m^6A reporter mRNA; METTL3 degron cells with and without auxin (FIG. 3G)): no significant difference
EGFP fluorescence from the GEMS system ([1]; HEK293T METTL3 degron cells, auxin (FIG. 3B)): reduced EGFP fluorescence
m^6A sensor sequence methylation, RT-qPCR [2]: decreased m^6A
total reporter mRNA protein production (EGFP+EGFP-DHFR) relative to cyclophilin A ([3]; METTL3 degron cells expressing GEMS (FIG. 3H)): no significant difference
METTL3 and EGFP protein, western blot ([3]; METTL3 degron cells, auxin (FIG. 3C)): loss of METTL3 and EGFP
EGFP/EGFP-DHFR ratio ([3]; METTL3 degron cells, auxin (FIG. 3D)): decrease in EGFP/EGFP-DHFR
m^6A in purified mRNA, mass spectrometry ([4]; METTL3 degron cells, auxin-treated (FIG. 3A)): decrease in m^6A

STM2457
C-to-U editing of the m^6A sensor sequence (m^6A sensor sequence; HEK293T, 30 μM STM2457, 24 h (FIG. 5J)): reduced C-to-U editing
editing of the m^6A sensor sequence (m^6A sensor sequence; HEK293T, 10 or 30 μM STM2457 (FIG. 5G)): decreased editing with increasing amounts
editing of the m^6A sensor sequence, GEMS with EGFP-PEST (m^6A sensor sequence; HEK293T, increasing amounts of STM2457 (FIG. 5N)): decreased editing with increasing amounts
SOCS2 mRNA expression, RT-qPCR (Huh-7 cells): dose-dependent increase
abundance of the m^6A reporter mRNA (m^6A reporter mRNA; HEK293T, 30 μM STM2457 or DMSO (FIG. 5I)): no significant difference
EGFP fluorescence from the GEMS system ([1]; HEK293T, 30 μM STM2457, 24 h (FIG. 5A)): reduced
EGFP fluorescence intensity, quantitative microscopy ([1]; HEK293T, 30 μM STM2457, EGFP normalized to DsRed (FIG. 5B)): significant reduction
m^6A-coupled EGFP fluorescence ([1]; HEK293T, 10 or 30 μM STM2457, 24 h, DsRed internal control (FIG. 5E)): increased depletion
EGFP signal, GEMS with EGFP-PEST ([1]; HEK293T, 10 or 30 μM STM2457, GEMS-EGFP-PEST, compared to GEMS-EGFP (FIG. 5L)): greater depletion at lower doses
EGFP fluorescence / GEMS activity activated by dCas13-GEMS ([1]; HEK293T, STM2457 for 16 hours, then dCas13-GEMS and gRNAs (FIG. 8F)): abolished; also recorded: decreased
proliferation and colony formation (MOLM-13 cells): reduced proliferation and colony formation
EGFP/EGFP-DHFR ratio, densitometry ([3]; HEK293T, 30 μM STM2457, 24 h (FIG. 5D)): reduced EGFP/EGFP-DHFR ratio
production of EGFP protein, western blot ([3]; HEK293T, 10 or 30 μM STM2457 (FIG. 5F)): decreased production of EGFP protein with increasing doses
EGFP protein, western blot ([3]; HEK293T, STM2457-treated (FIG. 5C)): decreased EGFP protein
production of EGFP protein, western blot, GEMS with EGFP-PEST ([3]; HEK293T, increasing doses of STM2457 (FIG. 5M)): decreased production of EGFP protein with increasing doses
m^6A in purified mRNA, mass spectrometry ([4]; HEK293T, STM2457 treatment (FIG. 5H)): depletion of m^6A

C[C@@H]1C[C@@H]([C@H](O)CC2CC(=O)NC(=O)C2)C(=O)[C@@H](C)C1 [cycloheximide]
m^6A reporter mRNA levels (m^6A reporter mRNA; HEK293T with GEMS, cycloheximide 0-120 minutes (FIG. 3I)): no effect
